Patent publication US20200017495A1, “NOVEL HETEROCYCLIC COMPOUNDS AND THEIR USE IN PREVENTING OR TREATING BACTERIAL INFECTIONS” (priority 2017, published 2020)

Assays:
Assay in all cases: MIC of compounds alone and combined with antibacterials, broth microdilution (CLSI)
Format in all cases: cell-based
[1] = test system: Enterobacter cloacae (ECL) isolates
Procedure: (§1) Method 2: MIC of Compounds Alone and Combined with Antibacterials Against Bacterial Isolates
(§2) Compounds of the present invention were assessed against genotyped bacterial strains (Table 3, 4) alone or in combination with an antibacterial (Table 2). […] Log phase bacterial suspensions were adjusted to a final density of 5.10^5 CFU/mL in cation-adjusted Mueller-Hinton broth (ca-MHB; Becton-Dickinson and Company) and added to each well (98 μL). Microplates were incubated for 16-20 h at 35° C. in ambient air. The MIC of the compounds was defined as the lowest concentration of said compounds that prevented bacterial growth as read by visual inspection. The MIC of ATB at each compound concentration was defined as the lowest concentration of ATB that prevented bacterial growth as read by visual inspection.

[2] = test system: Klebsiella pneumoniae (KPN) isolates
Procedure: as §1, §2

[3] = test system: Morganella morganii (MMO) isolates
Procedure: as §1, §2

[4] = test system: Providencia rettgeri (PRE) isolates
Procedure: as §1, §2

With `CO/N=C(\C(=O)N[C@@H]1C(=O)N2C(C(=O)O)=C(COC(N)=O)CS[C@H]12)c1ccco1` [FUR, Cefuroxime] the MIC ([1]; strain ECL 2185D, genotype OXA-163) was greater than 256 µg/mL, the MIC ([1]; strain ECL 190310, genotype AmpC) was greater than 256 µg/mL and the MIC ([1]; strain ECL 190408, genotype TEM-1, CTX-M-15, OXA-1) was greater than 256 µg/mL. It also gave an MIC ([1]; strain ECL 200138, genotype AmpC) greater than 256 µg/mL, an MIC ([1]; strain ECL 200322, genotype TEM-1, CTX-M-15, OXA-1) greater than 256 µg/mL and an MIC ([1]; strain ECL 260033, genotype AmpC) greater than 256 µg/mL. For the same compound, the MIC ([1]; strain ECL 260253, genotype TEM-1, KPC-3) was greater than 256 µg/mL, the MIC ([1]; strain ECL 260323, genotype AmpC) was greater than 256 µg/mL and the MIC ([1]; strain ECL 260508, genotype TEM-1, CTX-M-15) was greater than 256 µg/mL. For the same compound, the MIC ([1]; strain ECL NEM146383, genotype AmpC) was greater than 256 µg/mL, the MIC ([1]; strain ECL P99, genotype AmpC) was greater than 512 µg/mL and the MIC ([1]; strain ECL UFR12, genotype CTX-M-9, OXA-48) was greater than 256 µg/mL. It also gave an MIC ([1]; strain ECL UFR13, genotype TEM-1, SHV-12, CTX-M-9, OXA-48) greater than 256 µg/mL, an MIC ([1]; strain ECL UFR14, genotype TEM-1, SHV-12, CTX-M-15, DHA-1, OXA-1, OXA-48) greater than 256 µg/mL and an MIC ([1]; strain ECL UFR60, genotype TEM-1, CTX-M-15, KPC-2) greater than 256 µg/mL. It also gave an MIC ([1]; strain ECL UFR70, genotype TEM-1, CTX-M-15, CMY-2, OXA-1, Porin loss) greater than 256 µg/mL, an MIC ([1]; strain ECL UFR84, genotype TEM-1, AmpC, OXA-1) greater than 256 µg/mL and an MIC ([1]; strain ECL UFR85, genotype TEM-1, CTX-M-15, AmpC) greater than 256 µg/mL. The MIC ([1]; strain ECL UFR194, genotype OXA-48) was 32 µg/mL, the MIC ([1]; strain ECL UFR195, genotype TEM-1, CTX-M-15, OXA-1, OXA-48) was greater than 256 µg/mL and the MIC ([1]; strain ECL UFR196, genotype TEM-1, CTX-M-15, OXA-1, OXA-48) was greater than 256 µg/mL. For the same compound, the MIC ([1]; strain ECL UFR197, genotype TEM-1, CTX-M-15, OXA-1, OXA-48) was greater than 256 µg/mL, the MIC ([1]; strain ECL UFR198, genotype TEM-1, SHV-12, CTX-M-15, DHA-1, OXA-1, OXA-48) was greater than 256 µg/mL and the MIC ([1]; strain ECL UFR200, genotype TEM-1, SHV-12, KPC-2) was greater than 256 µg/mL. The MIC ([2]; strain KPN 6299, genotype TEM-1, SHV-11, OXA-163) was greater than 512 µg/mL, the MIC ([2]; strain KPN 110376, genotype TEM-1, SHV-1, CTX-M-15, OXA-1, OXA-48) was greater than 256 µg/mL and the MIC ([2]; strain KPN 121206, genotype SHV-1, NDM-1) was greater than 256 µg/mL. The MIC ([2]; strain KPN 131119, genotype TEM-1, SHV-11, CTX-M-15, OXA-1, OXA-48) was greater than 256 µg/mL, the MIC ([2]; strain KPN 140513, genotype TEM-1, SHV-11, CTX-M-15, KPC-3) was greater than 256 µg/mL and the MIC ([2]; strain KPN 160143, genotype TEM-1, SHV-1, CTX-M-15, KPC-2, OXA-1) was greater than 256 µg/mL. It also gave an MIC ([2]; strain KPN 190128, genotype TEM-1, SHV-32, CTX-M-15, OXA-1) greater than 256 µg/mL, an MIC ([2]; strain KPN 190270, genotype TEM-1, SHV-76, CTX-M-15, OXA-1) greater than 256 µg/mL and an MIC ([2]; strain KPN 190425, genotype TEM-1, SHV-1, CTX-M-15, OXA-1) greater than 256 µg/mL. For the same compound, the MIC ([2]; strain KPN 190551, genotype TEM-1, SHV-1, CTX-M-15, OXA-1) was greater than 256 µg/mL, the MIC ([2]; strain KPN 200047, genotype TEM-1, SHV-32, CTX-M-15, OXA-1) was greater than 256 µg/mL and the MIC ([2]; strain KPN 200327, genotype TEM-1, SHV-1, CTX-M-15, OXA-1) was greater than 256 µg/mL. The MIC ([2]; strain KPN 260251, genotype TEM-1, SHV-11, SHV-12, CTX-M-15, KPC-2) was greater than 256 µg/mL, the MIC ([2]; strain KPN 260252, genotype TEM-1, SHV-11, KPC-3) was greater than 256 µg/mL and the MIC ([2]; strain KPN 260376, genotype SHV-1, SHV-49, OXA-1) was greater than 256 µg/mL. The MIC ([2]; strain KPN 270077, genotype TEM-1, SHV-1, CTX-M-15) was greater than 256 µg/mL, the MIC ([2]; strain KPN 700603, genotype SHV-18, OXA-2) was 32 µg/mL and the MIC ([2]; strain KPN ARA, genotype TEM-1, SHV-11, CTX-M-15, OXA-1, OXA-48) was greater than 256 µg/mL. For the same compound, the MIC ([2]; strain KPN BAA-1898, genotype TEM-1, SHV-11, SHV-12, KPC-2) was greater than 512 µg/mL, the MIC ([2]; strain KPN LIB, genotype SHV-11, OXA-48) was 16 µg/mL and the MIC ([2]; strain KPN UFR22_O, genotype TEM-1, SHV-1, OXA-48) was 32 µg/mL. For the same compound, the MIC ([2]; strain KPN UFR23, genotype TEM-1, SHV-1, OXA-48) was 8 µg/mL, the MIC ([2]; strain KPN UFR24, genotype TEM-1, SHV-2, SHV-11, OXA-1, OXA-48, OXA-47) was 128 µg/mL and the MIC ([2]; strain KPN UFR25, genotype TEM-1, SHV-11, CTX-M-15, OXA-162) was greater than 256 µg/mL. The MIC ([2]; strain KPN UFR27, genotype TEM-1, SHV-28, CTX-M-15, OXA-204) was greater than 256 µg/mL, the MIC ([2]; strain KPN UFR28, genotype TEM-1, SHV-1, CTX-M-15, OXA-1, OXA-232) was greater than 256 µg/mL and the MIC ([2]; strain KPN UFR42, genotype SHV-2, CTX-M-15 OXA-1, OXA-181, NDM-1) was greater than 256 µg/mL. It also gave an MIC ([2]; strain KPN UFR65, genotype TEM-1, SHV-11, KPC-2) greater than 256 µg/mL, an MIC ([2]; strain KPN UFR66, genotype TEM-1, SHV-11, CTX-M-15, KPC-2) greater than 256 µg/mL and an MIC ([2]; strain KPN UFR67, genotype TEM-1, SHV-11, KPC-3) greater than 256 µg/mL. For the same compound, the MIC ([2]; strain KPN UFR68, genotype TEM-1, SHV-11, CTX-M-15, KPC-3) was greater than 256 µg/mL, the MIC ([2]; strain KPN UFR76, genotype TEM-155, SHV-11, ACT-1, OXA-2) was greater than 256 µg/mL and the MIC ([2]; strain KPN UFR77, genotype CMY-2) was 64 µg/mL. For the same compound, the MIC ([2]; strain KPN UFR78, genotype TEM-1, SHV-1, CTX-M-15, CMY-2, OXA-1, OXA-48) was greater than 256 µg/mL, the MIC ([2]; strain KPN UFR79, genotype DHA-1, OXA-1) was greater than 256 µg/mL and the MIC ([2]; strain KPN UFR80, genotype SHV-11, DHA-1, OXA-1) was 32 µg/mL. It also gave an MIC ([2]; strain KPN UFR81, genotype TEM-1, SHV-1, DHA-1, OXA-48) greater than 256 µg/mL, an MIC ([2]; strain KPN UFR215, genotype SHV-27, CTX-M-15) greater than 256 µg/mL and an MIC ([2]; strain KPN UFR216, genotype SHV-28, CTX-M-15) greater than 256 µg/mL. The MIC ([2]; strain KPN UFR217, genotype TEM-1, SHV-1, CTX-M-15) was greater than 256 µg/mL, the MIC ([2]; strain KPN UFR219, genotype SHV-12, CTX-M-15) was greater than 256 µg/mL and the MIC ([2]; strain KPN UFR220, genotype TEM-1, SHV-12, DHA-1) was greater than 256 µg/mL. It also gave an MIC ([2]; strain KPN UFR221, genotype TEM-1, SHV-11, CTX-M-14, DHA-1) greater than 256 µg/mL, an MIC ([2]; strain KPN UFR222, genotype DHA-2) greater than 256 µg/mL and an MIC ([2]; strain KPN UFR227O, genotype TEM-x, SHV-x, CTX-M-x) greater than 256 µg/mL. The MIC ([3]; strain MMO 200321, genotype TEM-1, CTX-M-15, OXA-1) was greater than 256 µg/mL, the MIC ([3]; strain MMO UFR144, genotype TEM-1, CTX-M-15) was greater than 256 µg/mL and the MIC ([3]; strain MMO UFR240, genotype CTX-M-9) was greater than 256 µg/mL. The MIC ([3]; strain MMO UFR241, genotype TEM-1, CTX-M-15) was greater than 256 µg/mL, the MIC ([3]; strain MMO UFR242, genotype TEM-52) was greater than 256 µg/mL and the MIC ([3]; strain MMO UFR243, genotype DHA-1) was 128 µg/mL. For the same compound, the MIC ([3]; strain MMO UFR244, genotype DHA-1) was 64 µg/mL, the MIC ([3]; strain MMO UFR245, genotype DHA-1) was 128 µg/mL and the MIC ([3]; strain MMO UFR246, genotype DHA-1) was 128 µg/mL. It also gave an MIC ([3]; strain MMO UFR247, genotype DHA-1) greater than 256 µg/mL, an MIC ([4]; strain PRE UFR99, genotype OXA-1, OXA-181) greater than 256 µg/mL and an MIC ([4]; strain PRE UFR236, genotype TEM-1, OXA-48) of 64 µg/mL.
